IC50, AC50 and EC50 data for three compounds are collected here from ChEMBL document CHEMBL1201862, “PubChem BioAssay data set” (2004).

The target in one test is Genome polyprotein (dengue virus type 2, UniProt P29990). Description: flavivirus cap methylation enzyme inhibition – biochemical, confirmation dose response, primary screen (AID 588689). The test is classed as functional.
The target in test [1] is Glucose-6-phosphate 1-dehydrogenase (Homo sapiens, UniProt P11413). Description: inhibition of Homo sapiens G6PD, dose series – biochemical, fluorescence, selectivity assay for P. falciparum G6PD inhibitor project, dose response (AID 504792). The test is classed as functional.
The target of a further test is T1, Protein skinhead-1 (Caenorhabditis elegans, UniProt P34707).
T1 sequence (P34707 whole entry): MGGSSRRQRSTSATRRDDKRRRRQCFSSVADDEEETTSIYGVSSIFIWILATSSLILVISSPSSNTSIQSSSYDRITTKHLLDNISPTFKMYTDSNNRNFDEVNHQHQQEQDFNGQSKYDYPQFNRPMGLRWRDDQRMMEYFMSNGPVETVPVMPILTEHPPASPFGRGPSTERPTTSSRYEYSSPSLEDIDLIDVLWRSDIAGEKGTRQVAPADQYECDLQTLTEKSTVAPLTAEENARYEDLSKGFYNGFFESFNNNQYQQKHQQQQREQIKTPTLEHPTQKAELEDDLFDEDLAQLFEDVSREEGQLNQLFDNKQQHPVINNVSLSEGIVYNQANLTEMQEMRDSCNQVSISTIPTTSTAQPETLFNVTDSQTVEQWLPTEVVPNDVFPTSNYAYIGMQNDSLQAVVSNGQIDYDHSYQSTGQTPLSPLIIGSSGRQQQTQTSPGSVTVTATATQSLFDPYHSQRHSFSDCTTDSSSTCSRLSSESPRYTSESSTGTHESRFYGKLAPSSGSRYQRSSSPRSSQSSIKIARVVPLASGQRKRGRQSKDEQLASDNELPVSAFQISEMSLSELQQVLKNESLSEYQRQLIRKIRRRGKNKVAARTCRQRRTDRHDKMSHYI
The test is classed as functional.

Test [2] deals with Voltage-gated inwardly rectifying potassium channel KCNH2 (Homo sapiens, UniProt Q12809). The following applies: Potency.
The next test concerns the target Caspase-7 (Homo sapiens, UniProt P55210). Description: caspase-7 enzyme inhibition, selectivity check – biochemical, DEVD-R110 fluorescence, cherry-pick, selectivity assay for caspase-6 inhibitor project, dose response (AID 743295). The test is classed as functional.
Test [3] concerns the target T2, Histone-lysine N-methyltransferase NSD2 (Homo sapiens, UniProt O96028).
T2 sequence (O96028 whole entry): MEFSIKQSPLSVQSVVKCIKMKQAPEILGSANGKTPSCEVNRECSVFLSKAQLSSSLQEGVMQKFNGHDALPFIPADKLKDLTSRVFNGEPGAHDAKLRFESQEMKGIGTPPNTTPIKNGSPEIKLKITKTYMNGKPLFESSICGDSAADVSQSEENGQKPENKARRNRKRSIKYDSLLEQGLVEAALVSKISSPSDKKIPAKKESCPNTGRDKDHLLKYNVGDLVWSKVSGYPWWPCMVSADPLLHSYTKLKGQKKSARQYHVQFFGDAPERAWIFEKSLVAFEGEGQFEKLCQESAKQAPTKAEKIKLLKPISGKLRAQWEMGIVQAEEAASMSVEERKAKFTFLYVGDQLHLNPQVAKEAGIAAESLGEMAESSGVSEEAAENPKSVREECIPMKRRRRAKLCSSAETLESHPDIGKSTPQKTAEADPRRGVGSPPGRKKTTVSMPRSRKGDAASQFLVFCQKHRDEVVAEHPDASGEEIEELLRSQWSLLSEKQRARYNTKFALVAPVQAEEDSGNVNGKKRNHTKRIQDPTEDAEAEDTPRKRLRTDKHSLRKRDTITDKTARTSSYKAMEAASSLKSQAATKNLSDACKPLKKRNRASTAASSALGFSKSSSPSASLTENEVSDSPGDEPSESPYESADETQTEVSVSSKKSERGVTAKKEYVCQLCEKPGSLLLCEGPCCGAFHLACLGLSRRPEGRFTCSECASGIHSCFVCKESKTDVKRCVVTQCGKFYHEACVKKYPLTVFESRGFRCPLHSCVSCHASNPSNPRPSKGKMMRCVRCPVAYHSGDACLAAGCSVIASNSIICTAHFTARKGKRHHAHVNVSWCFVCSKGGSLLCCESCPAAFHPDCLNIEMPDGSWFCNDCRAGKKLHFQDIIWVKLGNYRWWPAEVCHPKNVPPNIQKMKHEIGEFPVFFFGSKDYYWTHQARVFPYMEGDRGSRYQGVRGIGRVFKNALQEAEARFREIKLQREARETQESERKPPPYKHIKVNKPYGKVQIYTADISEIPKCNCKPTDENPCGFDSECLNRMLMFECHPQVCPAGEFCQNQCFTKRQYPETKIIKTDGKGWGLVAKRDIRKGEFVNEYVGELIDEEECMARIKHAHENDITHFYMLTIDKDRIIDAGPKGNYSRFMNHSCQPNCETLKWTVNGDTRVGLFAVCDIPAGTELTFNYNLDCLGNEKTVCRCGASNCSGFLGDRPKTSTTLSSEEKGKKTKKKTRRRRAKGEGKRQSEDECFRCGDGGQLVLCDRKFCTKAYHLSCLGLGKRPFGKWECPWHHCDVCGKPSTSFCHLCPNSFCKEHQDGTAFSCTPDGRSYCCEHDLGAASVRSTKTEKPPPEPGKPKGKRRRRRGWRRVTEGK
The test is classed as biochemical.

For a further test, the target named is T3, Caspase-6 (Homo sapiens, UniProt P55212).
T3 sequence (P55212 whole entry): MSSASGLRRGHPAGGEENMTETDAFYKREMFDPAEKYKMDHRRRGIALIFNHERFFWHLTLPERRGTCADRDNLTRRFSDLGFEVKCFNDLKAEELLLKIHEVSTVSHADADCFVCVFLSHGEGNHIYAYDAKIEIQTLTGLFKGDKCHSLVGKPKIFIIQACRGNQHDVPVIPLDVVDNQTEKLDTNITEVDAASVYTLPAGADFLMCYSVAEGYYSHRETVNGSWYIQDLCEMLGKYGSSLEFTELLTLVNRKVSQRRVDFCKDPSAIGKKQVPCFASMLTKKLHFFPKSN
Description: inhibition of CASP6 peptide cleavage – biochemical, VEID-R110 fluorescence, cherry-pick, dose response (AID 720632).

For another test, the target named is Major prion protein (Homo sapiens, UniProt P04156). The test is classed as functional, cell-based.
Test [4] deals with T4, Sentrin-specific protease 7 (Homo sapiens, UniProt Q9BQF6).
T4 sequence (Q9BQF6 whole entry): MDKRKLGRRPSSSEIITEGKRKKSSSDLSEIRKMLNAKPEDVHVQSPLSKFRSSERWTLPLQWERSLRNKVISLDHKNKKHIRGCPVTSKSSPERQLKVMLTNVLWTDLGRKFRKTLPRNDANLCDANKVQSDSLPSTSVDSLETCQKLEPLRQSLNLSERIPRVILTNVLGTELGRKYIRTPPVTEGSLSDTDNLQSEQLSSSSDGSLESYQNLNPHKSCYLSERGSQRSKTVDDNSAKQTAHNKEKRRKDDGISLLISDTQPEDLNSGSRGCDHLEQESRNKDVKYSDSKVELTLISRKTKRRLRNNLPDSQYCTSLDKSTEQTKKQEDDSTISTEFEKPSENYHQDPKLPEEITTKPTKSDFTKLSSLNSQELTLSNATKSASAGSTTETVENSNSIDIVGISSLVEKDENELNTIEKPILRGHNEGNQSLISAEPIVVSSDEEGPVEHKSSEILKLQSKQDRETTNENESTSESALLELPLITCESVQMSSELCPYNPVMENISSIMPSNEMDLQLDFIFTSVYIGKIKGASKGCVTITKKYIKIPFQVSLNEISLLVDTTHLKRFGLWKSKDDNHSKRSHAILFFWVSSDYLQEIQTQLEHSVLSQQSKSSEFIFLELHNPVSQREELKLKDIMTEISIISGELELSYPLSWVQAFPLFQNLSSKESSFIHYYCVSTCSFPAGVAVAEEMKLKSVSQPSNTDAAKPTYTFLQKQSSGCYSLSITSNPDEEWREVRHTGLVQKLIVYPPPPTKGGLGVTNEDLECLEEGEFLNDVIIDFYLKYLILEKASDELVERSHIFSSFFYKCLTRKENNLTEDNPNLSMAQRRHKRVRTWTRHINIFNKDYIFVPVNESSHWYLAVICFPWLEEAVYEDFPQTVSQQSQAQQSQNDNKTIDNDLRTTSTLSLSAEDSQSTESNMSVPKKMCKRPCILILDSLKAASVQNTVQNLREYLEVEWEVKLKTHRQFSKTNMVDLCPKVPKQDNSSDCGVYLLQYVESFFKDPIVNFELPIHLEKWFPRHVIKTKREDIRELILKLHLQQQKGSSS
The test is classed as functional.

Test [5] concerns the target T5, Sentrin-specific protease 6 (Homo sapiens, UniProt Q9GZR1).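 Also: Luminescence-based dose-response confirmatory assay of SENP6 inhibition, following up an ultra-high-throughput screen.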
T5 sequence (Q9GZR1 whole entry): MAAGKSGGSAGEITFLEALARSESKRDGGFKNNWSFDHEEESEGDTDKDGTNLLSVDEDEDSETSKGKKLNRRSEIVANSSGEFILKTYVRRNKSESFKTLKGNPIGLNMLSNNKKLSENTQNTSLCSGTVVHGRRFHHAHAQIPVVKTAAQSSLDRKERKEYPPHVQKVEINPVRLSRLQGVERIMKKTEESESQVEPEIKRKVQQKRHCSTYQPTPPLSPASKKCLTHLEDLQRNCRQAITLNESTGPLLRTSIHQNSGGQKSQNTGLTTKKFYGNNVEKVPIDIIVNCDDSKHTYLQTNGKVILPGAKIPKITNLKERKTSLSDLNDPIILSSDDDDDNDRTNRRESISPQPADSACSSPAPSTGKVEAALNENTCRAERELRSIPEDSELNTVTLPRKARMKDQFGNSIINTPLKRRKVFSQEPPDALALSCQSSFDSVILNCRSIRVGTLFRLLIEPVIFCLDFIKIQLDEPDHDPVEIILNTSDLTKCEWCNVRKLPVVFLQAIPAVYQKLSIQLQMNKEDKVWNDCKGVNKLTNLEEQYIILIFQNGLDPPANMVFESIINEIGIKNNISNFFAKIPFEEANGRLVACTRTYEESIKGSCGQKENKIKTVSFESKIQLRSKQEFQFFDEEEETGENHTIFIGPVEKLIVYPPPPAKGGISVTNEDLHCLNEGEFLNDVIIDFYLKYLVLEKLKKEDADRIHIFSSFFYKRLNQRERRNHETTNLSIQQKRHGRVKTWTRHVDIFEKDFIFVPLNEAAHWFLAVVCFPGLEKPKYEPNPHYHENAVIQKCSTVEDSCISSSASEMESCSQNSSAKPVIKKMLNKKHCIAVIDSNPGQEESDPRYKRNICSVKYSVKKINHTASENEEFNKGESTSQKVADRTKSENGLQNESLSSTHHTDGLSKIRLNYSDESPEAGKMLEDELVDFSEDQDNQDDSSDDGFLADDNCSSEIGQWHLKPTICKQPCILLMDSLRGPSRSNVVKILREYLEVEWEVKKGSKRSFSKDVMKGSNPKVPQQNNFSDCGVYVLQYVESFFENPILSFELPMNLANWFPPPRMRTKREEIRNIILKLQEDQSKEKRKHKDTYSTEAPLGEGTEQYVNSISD
The test is classed as functional.

For test [6], the target named is T6, Oxysterols receptor LXR-beta (Homo sapiens, UniProt P55055).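 Also: agonist activity at LXR measured by a cell-based luminescence readout across a dose range, run as a counterscreen for daf-12 agonists; HEK293 cells with Gal4-LXR fusion and GAL4-driven luciferase reporter; potency for activation of Gal4-LXR reporter so compounds are agonists.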
T6 sequence (P55055 whole entry): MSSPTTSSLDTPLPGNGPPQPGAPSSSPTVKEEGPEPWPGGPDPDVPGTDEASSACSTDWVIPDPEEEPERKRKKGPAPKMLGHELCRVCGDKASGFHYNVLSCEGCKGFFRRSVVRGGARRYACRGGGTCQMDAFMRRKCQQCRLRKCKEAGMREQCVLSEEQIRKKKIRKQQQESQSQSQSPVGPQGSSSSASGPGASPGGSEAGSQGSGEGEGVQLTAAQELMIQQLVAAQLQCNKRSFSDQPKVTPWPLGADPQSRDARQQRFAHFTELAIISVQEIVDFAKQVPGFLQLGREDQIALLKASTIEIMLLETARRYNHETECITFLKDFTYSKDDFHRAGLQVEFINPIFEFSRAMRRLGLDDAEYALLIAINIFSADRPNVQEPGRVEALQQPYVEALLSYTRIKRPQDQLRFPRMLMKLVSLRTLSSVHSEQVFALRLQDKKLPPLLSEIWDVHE
The test is classed as functional, cell-based.

Test [7] deals with T7, Sentrin-specific protease 8 (Homo sapiens, UniProt Q96LD8).
T7 sequence (Q96LD8 whole entry): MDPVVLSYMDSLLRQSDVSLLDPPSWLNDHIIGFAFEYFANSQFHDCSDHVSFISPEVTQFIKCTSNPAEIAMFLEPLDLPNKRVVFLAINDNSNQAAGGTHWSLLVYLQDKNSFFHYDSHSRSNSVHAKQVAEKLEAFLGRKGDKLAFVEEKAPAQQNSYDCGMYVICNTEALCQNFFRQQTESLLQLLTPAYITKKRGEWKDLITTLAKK
The test is classed as functional.

The next test addresses T8, Caspase-3 (Homo sapiens, UniProt P42574).
T8 sequence (P42574 whole entry): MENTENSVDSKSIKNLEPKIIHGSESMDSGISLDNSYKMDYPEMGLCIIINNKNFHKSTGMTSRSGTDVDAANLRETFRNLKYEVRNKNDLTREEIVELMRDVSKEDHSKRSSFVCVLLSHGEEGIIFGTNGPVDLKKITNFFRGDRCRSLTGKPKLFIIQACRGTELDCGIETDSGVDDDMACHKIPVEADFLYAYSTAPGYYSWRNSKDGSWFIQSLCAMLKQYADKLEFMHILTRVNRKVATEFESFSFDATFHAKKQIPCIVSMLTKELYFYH
The test is classed as functional.

Active and inactive are the calls of the source.

Take `Oc1cc2c(cc1O)[C@H]1c3ccc(O)c(O)c3OC[C@@]1(O)C2`: the values for the IC50 (on Genome polyprotein; in test [1]; on Protein skinhead-1) were 22.5 µM (active), 67.6 µM (inactive) and > 100 µM (inactive), respectively. In addition, the concentration at half-maximal activity (AC50) (usually the concentration giving half of the maximal activity seen) in test [2] is 22.4 µM (inconclusive); on Caspase-7, 68.5 µM (active); in [3], 1.53 µM (active); on Caspase-6, 3.95 µM (active).

With `COc1cccc(-c2cc3c(=O)n(-c4ccccc4)c(=S)[nH]c3s2)c1`, the IC50 (commonly the concentration at which inhibition is half-maximal) was > 138 µM (inactive) in “cells” and 6.34 µM (active) at Major prion protein.

Take `Cc1ccc(/C=N/N=C/c2ccc(C)s2)s1`: the IC50 in [4] is 5.6 µM (active); in [5] it was 18.7 µM (active); in test [7], 21.9 µM (active); on Caspase-3 it was 18.5 µM (active). For the same compound, in test [6], the EC50 – broadly, the concentration giving half of the maximal effect – is > 67.5 µM (inactive).
